According to ChEMBL document CHEMBL4177668, “Synthesis and biological evaluation of thiazole derivatives as GPR119 agonists” (Bioorg Med Chem Lett, 2017):
Calls of active or inactive are those of the source. No cut-off for these calls is given here.

Assays:
[1] = biological target: T1, Glucose-dependent insulinotropic receptor (Homo sapiens) (UniProt Q8TDV5); assay: Activation of human GPR119 expressed in CHOK1 cells co-expressing CRE-luciferase at 1 uM after 6 hrs by luciferase reporter gene assay relative to GSK1292263; assay type: functional, cell-based
T1 sequence (whole entry): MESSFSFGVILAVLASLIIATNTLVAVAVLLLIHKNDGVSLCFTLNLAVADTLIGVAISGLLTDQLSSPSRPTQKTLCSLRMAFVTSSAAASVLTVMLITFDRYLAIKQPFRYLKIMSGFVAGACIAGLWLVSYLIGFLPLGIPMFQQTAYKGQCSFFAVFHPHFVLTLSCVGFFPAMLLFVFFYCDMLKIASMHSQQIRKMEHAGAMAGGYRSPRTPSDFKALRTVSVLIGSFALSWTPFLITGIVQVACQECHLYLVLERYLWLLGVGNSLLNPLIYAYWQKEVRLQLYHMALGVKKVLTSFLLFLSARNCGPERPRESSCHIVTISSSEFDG

[2] = biological target: T2, Glucose-dependent insulinotropic receptor (Homo sapiens, UniProt Q8TDV5); assay: Agonist activity at human GPR119 expressed in CHOK1 cells co-expressing CRE-luciferase after 6 hrs by luciferase reporter gene assay; assay type: functional, cell-based
T2 sequence (Q8TDV5 whole entry): T1 sequence (whole entry)

[3] = Metabolic stability in human liver microsomes assessed as compound remaining after 30 mins; assay type: ADME, microsome; conditions: read-out: Stability
[4] = Metabolic stability in rat liver microsomes assessed as compound remaining after 30 mins; assay type: ADME, microsome; conditions: read-out: Stability
Cytochrome P450 1A2 = biological target: T3, Cytochrome P450 1A2 (Homo sapiens, UniProt P05177); assay: Inhibition of CYP1A2 (unknown origin); assay type: ADME
T3 sequence (P05177 whole entry): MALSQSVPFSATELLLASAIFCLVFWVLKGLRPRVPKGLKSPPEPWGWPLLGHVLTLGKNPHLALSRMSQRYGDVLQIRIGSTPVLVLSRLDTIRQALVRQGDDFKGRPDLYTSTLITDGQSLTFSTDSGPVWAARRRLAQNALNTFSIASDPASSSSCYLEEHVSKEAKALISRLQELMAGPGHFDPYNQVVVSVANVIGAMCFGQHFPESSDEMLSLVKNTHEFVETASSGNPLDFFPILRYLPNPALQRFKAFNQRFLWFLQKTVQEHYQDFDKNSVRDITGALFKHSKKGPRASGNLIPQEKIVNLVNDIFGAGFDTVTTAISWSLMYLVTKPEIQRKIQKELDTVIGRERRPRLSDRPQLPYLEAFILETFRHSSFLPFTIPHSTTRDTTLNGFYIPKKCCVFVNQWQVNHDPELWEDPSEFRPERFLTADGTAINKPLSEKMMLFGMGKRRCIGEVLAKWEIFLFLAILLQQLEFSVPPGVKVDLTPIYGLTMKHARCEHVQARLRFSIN

Cytochrome P450 2A6 = biological target: T4, Cytochrome P450 2A6 (Homo sapiens, UniProt P11509); assay: Inhibition of CYP2A6 (unknown origin); assay type: ADME
T4 sequence (P11509 whole entry): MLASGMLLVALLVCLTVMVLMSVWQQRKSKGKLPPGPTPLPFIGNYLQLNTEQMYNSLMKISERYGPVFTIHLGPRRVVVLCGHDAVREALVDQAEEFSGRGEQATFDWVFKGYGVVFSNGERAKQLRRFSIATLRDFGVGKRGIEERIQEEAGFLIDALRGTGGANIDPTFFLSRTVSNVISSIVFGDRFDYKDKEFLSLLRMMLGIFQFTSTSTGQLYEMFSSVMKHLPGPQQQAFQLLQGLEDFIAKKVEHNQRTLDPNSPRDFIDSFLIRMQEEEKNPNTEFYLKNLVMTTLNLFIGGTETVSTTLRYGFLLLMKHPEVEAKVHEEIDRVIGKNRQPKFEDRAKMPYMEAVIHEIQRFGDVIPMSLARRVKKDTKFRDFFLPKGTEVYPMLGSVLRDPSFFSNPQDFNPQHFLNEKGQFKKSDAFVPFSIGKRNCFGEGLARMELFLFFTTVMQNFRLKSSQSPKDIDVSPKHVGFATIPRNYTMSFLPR

Cytochrome P450 2C19 = Cytochrome P450 2C19 (Homo sapiens, UniProt P33261); assay: Inhibition of CYP2C19 (unknown origin); assay type: ADME
Cytochrome P450 2D6 = Cytochrome P450 2D6 (Homo sapiens, UniProt P10635); assay: Inhibition of CYP2D6 (unknown origin); assay type: ADME
Cytochrome P450 3A4 = Cytochrome P450 3A4 (Homo sapiens, UniProt P08684); assay: Inhibition of CYP3A4 (unknown origin); assay type: ADME
hERG (KCNH2) = hERG (KCNH2) (Homo sapiens, UniProt Q12809); assay: Inhibition of human ERG at 10 uM
Vero = assay: Cytotoxicity against African green monkey Vero cells; assay type: cell-based; conditions: Chlorocebus sabaeus
L929 = assay: Cytotoxicity against mouse L929 cells; assay type: cell-based
NIH3T3 = assay: Cytotoxicity against mouse NIH/3T3 cells; assay type: cell-based
HFL1 = assay: Cytotoxicity against HFL1 cells; assay type: cell-based; conditions: Homo sapiens
CHO-K1 = assay: Cytotoxicity against CHOK1 cells; assay type: cell-based; conditions: Cricetulus griseus
Mus musculus = assay: Antidiabetic activity in C57BL/6 mouse assessed as decrease in plasma glucose AUC at 30 mg/kg, po pretreated for 30 mins followed by glucose challenge measured up to 120 mins by oGTT assay; assay type: functional, organism-based

Sequence of Cytochrome P450 2C19 (P33261 whole entry): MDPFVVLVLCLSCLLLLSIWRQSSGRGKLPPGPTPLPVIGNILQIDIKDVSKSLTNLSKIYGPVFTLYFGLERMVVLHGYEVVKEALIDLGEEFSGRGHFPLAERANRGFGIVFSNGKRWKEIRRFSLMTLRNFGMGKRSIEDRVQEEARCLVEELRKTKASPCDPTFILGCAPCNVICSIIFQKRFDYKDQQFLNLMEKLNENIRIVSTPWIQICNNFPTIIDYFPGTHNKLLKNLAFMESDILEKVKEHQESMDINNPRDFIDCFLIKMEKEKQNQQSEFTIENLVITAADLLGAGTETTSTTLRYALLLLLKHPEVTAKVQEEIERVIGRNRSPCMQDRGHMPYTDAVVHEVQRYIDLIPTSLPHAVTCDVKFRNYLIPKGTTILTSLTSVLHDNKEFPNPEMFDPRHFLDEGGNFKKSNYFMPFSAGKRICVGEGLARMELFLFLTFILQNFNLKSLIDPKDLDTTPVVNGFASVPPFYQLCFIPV
Sequence of Cytochrome P450 2D6 (P10635 whole entry): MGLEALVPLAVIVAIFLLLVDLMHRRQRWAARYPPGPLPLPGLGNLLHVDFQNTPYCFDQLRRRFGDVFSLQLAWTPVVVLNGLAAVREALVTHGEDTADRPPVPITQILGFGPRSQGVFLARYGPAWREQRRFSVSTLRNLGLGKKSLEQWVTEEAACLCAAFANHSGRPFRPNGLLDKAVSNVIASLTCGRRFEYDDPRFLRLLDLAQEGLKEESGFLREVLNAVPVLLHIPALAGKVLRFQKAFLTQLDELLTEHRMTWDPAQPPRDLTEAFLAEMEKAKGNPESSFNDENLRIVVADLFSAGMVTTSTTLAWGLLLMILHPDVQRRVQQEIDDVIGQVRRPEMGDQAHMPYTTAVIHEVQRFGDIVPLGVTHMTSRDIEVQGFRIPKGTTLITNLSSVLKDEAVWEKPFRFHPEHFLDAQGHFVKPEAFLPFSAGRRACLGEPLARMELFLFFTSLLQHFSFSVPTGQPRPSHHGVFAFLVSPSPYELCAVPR
Sequence of Cytochrome P450 3A4 (P08684 whole entry): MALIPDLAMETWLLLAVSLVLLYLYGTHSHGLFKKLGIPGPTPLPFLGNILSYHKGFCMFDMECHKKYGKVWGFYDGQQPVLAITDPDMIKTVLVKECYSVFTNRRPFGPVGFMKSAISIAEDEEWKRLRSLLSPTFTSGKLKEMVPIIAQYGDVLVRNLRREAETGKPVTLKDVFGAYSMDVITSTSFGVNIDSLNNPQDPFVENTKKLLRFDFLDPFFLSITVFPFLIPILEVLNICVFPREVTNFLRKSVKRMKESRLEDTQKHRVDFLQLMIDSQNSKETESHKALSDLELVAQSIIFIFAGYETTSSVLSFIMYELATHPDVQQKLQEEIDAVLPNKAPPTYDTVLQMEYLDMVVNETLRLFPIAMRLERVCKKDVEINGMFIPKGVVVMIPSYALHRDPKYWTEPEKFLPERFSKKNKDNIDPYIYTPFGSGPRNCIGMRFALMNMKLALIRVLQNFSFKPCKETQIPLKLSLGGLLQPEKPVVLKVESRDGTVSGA
Sequence of hERG (KCNH2) (Q12809 whole entry): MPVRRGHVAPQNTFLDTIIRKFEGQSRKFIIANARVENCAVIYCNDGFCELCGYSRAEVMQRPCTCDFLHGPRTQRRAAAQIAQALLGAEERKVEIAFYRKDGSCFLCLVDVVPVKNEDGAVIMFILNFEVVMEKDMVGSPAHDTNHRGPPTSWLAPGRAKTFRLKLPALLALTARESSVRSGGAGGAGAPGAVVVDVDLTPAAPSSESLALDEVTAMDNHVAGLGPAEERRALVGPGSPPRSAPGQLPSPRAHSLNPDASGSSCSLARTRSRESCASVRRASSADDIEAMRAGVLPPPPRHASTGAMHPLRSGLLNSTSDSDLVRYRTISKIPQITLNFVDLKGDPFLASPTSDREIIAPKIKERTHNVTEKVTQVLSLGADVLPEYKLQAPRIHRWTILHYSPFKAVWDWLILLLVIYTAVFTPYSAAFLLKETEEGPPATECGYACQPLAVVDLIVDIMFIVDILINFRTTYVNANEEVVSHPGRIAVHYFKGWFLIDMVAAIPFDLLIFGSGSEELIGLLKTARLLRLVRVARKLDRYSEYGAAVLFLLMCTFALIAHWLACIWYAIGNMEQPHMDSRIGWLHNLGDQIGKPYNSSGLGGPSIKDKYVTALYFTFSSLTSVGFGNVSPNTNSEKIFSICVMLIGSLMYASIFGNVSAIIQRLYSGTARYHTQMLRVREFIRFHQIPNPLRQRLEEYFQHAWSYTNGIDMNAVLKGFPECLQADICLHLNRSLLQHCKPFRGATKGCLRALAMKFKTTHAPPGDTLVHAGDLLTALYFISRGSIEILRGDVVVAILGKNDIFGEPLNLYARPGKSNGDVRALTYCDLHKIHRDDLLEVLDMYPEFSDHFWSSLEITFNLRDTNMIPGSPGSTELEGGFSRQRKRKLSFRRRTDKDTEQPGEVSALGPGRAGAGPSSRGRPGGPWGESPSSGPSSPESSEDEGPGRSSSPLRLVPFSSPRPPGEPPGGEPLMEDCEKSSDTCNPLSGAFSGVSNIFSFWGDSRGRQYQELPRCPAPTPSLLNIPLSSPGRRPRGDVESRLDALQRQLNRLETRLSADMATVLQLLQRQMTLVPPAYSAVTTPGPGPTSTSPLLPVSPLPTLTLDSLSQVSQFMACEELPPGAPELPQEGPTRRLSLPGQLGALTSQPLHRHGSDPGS

SMILES | Activity [1] [%] | EC50 [2] [nM] | other results
[N-]=[N+]=NCCOCCOCCOCCNC(=O)CCc1cnc(N2CCC(c3nc(COc4ccc(-n5cnnn5)cc4)cs3)CC2)nc1 | 25 |  | 
NCCOCCOCCOCCNC(=O)CCc1cnc(N2CCC(c3nc(COc4ccc(-n5cnnn5)cc4)cs3)CC2)nc1 | 28 |  | 
CCc1cnc(N2CCC(c3nc(COc4c(F)cc(/C=C5\CC(=O)NC5=O)cc4F)cs3)CC2)nc1 | 59 | 211 | 
N=C(N)NC(=N)N1CCC(c2nc(COc3ccc(-n4cnnn4)cc3)cs2)CC1 | 20 |  | 
CCc1cnc(N2CCC(c3nc(COc4ccc(/C=C5\SC(=O)NC5=O)cc4F)cs3)CC2)nc1 | 60 | 780 | 
CC(C)(F)CN1CCC(c2nc(COc3ccc(/C=C4\CC(=O)NC4=O)cc3)cs2)CC1 | 48 |  | 
CCc1cnc(N2CCC(c3nc(COc4ccc(/C=C5\CC(=O)NC5=O)cc4F)cs3)CC2)nc1 | 94 | 49 | remaining at 0.5 h [3]: 48.9%; remaining at 0.5 h [4]: 33%; INH (Cytochrome P450 1A2): > 100 µM; INH (Cytochrome P450 2A6): > 100 µM; INH (Cytochrome P450 2C19): > 100 µM; INH (Cytochrome P450 2D6): > 100 µM; INH (Cytochrome P450 3A4): > 100 µM; inhibition at 10 µM (hERG (KCNH2)): 5.3%; IC50 (Vero): > 100000 nM; IC50 (L929): > 100000 nM; IC50 (NIH3T3): > 100000 nM; IC50 (HFL1): > 100000 nM; IC50 (CHO-K1): > 100000 nM; Activity (Mus musculus): Active
NC(=O)CCc1cnc(N2CCC(c3nc(COc4ccc(-n5cnnn5)cc4)cs3)CC2)nc1 | 22 |  | 
CCc1cnc(N2CCC(c3nc(COc4ccc(/C=C5\CC(=O)N(CCNC(=O)OC(C)(C)C)C5=O)cc4F)cs3)CC2)nc1 | 63 |  | 
CCc1cnc(N2CCC(c3nc(COc4ccc(/C=C5\CC(=O)N(c6ccccc6)C5=O)cc4F)cs3)CC2)nc1 | 67 | 82 | 
CC(C)(O)CN1CCC(c2nc(COc3c(F)cc(/C=C4\CC(=O)NC4=O)cc3F)cs2)CC1 | 32 |  | 
CCc1cnc(N2CCC(c3nc(COc4ccc(/C=C5\CC(=O)N(CCN)C5=O)cc4F)cs3)CC2)nc1 | 51 |  | 
NCCNC(=O)CCc1cnc(N2CCC(c3nc(COc4ccc(-n5cnnn5)cc4)cs3)CC2)nc1 | 27 |  | 
CC(C)(C)OC(=O)NCCNC(=O)CCc1cnc(N2CCC(c3nc(COc4ccc(-n5cnnn5)cc4)cs3)CC2)nc1 | 30 |  | 
CC(C)(F)CN1CCC(c2nc(COc3c(F)cc(/C=C4\CC(=O)NC4=O)cc3F)cs2)CC1 | 42 |  | 
CC(C)(F)CN1CCC(c2nc(COc3ccc(/C=C4\CC(=O)NC4=O)cc3F)cs2)CC1 | 53 |  | 
CC(C)(C)OC(=O)N1CCC(c2nc(COc3ccc(/C=C4\CC(=O)NC4=O)cc3)cs2)CC1 | 57 |  | 
CCOC(=O)CCc1cnc(N2CCC(c3nc(COc4ccc(-n5cnnn5)cc4)cs3)CC2)nc1 | 34 |  | 
Cc1cc(/C=C2\CC(=O)NC2=O)ccc1OCc1csc(C2CCN(CC(C)(C)O)CC2)n1 | 36 |  | 
CC(C)(O)CN1CCC(c2nc(COc3ccc(/C=C4\CC(=O)NC4=O)cc3)cs2)CC1 | 27 |  | 

SMILES | Activity [1] [%] | EC50 [2] [nM] | other results
Cc1cc(/C=C2\CC(=O)NC2=O)ccc1OCc1csc(C2CCN(CC(C)(C)F)CC2)n1 | 46 |  | 
CCc1cnc(N2CCC(c3nc(COc4ccc(/C=C5\CC(=O)N(CC6CCOCC6)C5=O)cc4F)cs3)CC2)nc1 | 61 | 240 | 
CC(C)(C)OC(=O)N1CCC(c2nc(COc3ccc(-n4cnnn4)cc3)cs2)CC1 | 118 | 103 | 
CCc1cnc(N2CCC(c3nc(COc4ccc(/C=C5\SC(=S)NC5=O)cc4F)cs3)CC2)nc1 | 39 |  | 
CCc1cnc(N2CCC(c3nc(COc4ccc(-n5cnnn5)cc4)cs3)CC2)nc1 [MBX-2982] | 91 | 87 | remaining at 0.5 h [3]: 7.8%; remaining at 0.5 h [4]: 20.6%; INH (Cytochrome P450 1A2): > 100 µM; INH (Cytochrome P450 2A6): 3.53 µM; INH (Cytochrome P450 2C19): > 100 µM; INH (Cytochrome P450 2D6): > 100 µM; INH (Cytochrome P450 3A4): 2.24 µM; inhibition at 10 µM (hERG (KCNH2)): 10.5%; IC50 (Vero): > 100000 nM; IC50 (L929): > 100000 nM; IC50 (NIH3T3): > 100000 nM; IC50 (HFL1): > 100000 nM; IC50 (CHO-K1): > 100000 nM; Activity (Mus musculus): Active
CCc1cnc(N2CCC(c3nc(COc4ccc(/C=C5\SC(=S)N(N)C5=O)cc4F)cs3)CC2)nc1 | 43 |  | 
CCc1cnc(N2CCC(c3nc(COc4ccc(/C=C5\CC(=O)N(CCN6CCOCC6)C5=O)cc4F)cs3)CC2)nc1 | 49 |  | 
CCc1cnc(N2CCC(c3nc(COc4ccc(/C=C5\CCNC5=O)cc4F)cs3)CC2)nc1 | 65 | 100 | 
CCc1cnc(N2CCC(c3nc(COc4ccc(/C=C5\CC(=S)N(CC(=O)O)C5=O)cc4F)cs3)CC2)nc1 | 32 |  | 
O=C(CCc1cnc(N2CCC(c3nc(COc4ccc(-n5cnnn5)cc4)cs3)CC2)nc1)NOCc1ccccc1 | 26 |  | 
C[N+](C)(C)CCNC(=O)CCc1cnc(N2CCC(c3nc(COc4ccc(-n5cnnn5)cc4)cs3)CC2)nc1 | 28 |  | 
CCc1cnc(N2CCC(c3nc(COc4ccc(/C=C5\CC(=O)NC5=O)cc4C)cs3)CC2)nc1 | 90 | 18 | remaining at 0.5 h [3]: 17.1%; remaining at 0.5 h [4]: 32.4%; INH (Cytochrome P450 1A2): > 100 µM; INH (Cytochrome P450 2A6): > 100 µM; INH (Cytochrome P450 2C19): > 100 µM; INH (Cytochrome P450 2D6): > 100 µM; INH (Cytochrome P450 3A4): > 13.8 µM; inhibition at 10 µM (hERG (KCNH2)): 3.3%; IC50 (Vero): > 100000 nM; IC50 (L929): > 100000 nM; IC50 (NIH3T3): > 100000 nM; IC50 (HFL1): > 100000 nM; IC50 (CHO-K1): > 100000 nM; Activity (Mus musculus): Active
Cc1cc(/C=C2\CC(=O)NC2=O)ccc1OCc1csc(C2CCN(C(=O)OC(C)(C)C)CC2)n1 | 81 | 19 | 
O=C(O)CCc1cnc(N2CCC(c3nc(COc4ccc(-n5cnnn5)cc4)cs3)CC2)nc1 | 29 |  | 
CC(C)(C)OC(=O)N1CCC(c2nc(COc3c(F)cc(/C=C4\CC(=O)NC4=O)cc3F)cs2)CC1 | 41 |  | 
CC(C)(O)CN1CCC(c2nc(COc3ccc(/C=C4\CC(=O)NC4=O)cc3F)cs2)CC1 | 31 |  | 
CCc1cnc(N2CCC(c3nc(COc4ccc(/C=C5\CC(=O)NC5=O)cc4)cs3)CC2)nc1 | 71 | 182 | 
CCc1cnc(N2CCC(c3nc(COc4ccc(/C=C/C(=O)O)cc4F)cs3)CC2)nc1 | 55 |  | 
CC(C)(C)OC(=O)N1CCC(c2nc(COc3ccc(/C=C4\CC(=O)NC4=O)cc3F)cs2)CC1 | 69 | 157 | 
